Converted amounts (≈) assume the structure as drawn. “And” between values parts separate entries of the source, which are not always exact repeats. Identical values can stand only once. Blank lines part the entries; values can stand above or below the molecule they belong to.
How the values were obtained:
[1] = Dissolution of ropivacaine crystals in suspension, USP I apparatus; type: physicochemical
Experimental: Prior to assessing intrinsic dissolution of ropivacaine, the kinetics of dissolution of crystals in suspension was assessed using a USP I apparatus with either large (1 L capacity, filled to 500 mL) or small (150 mL) dissolution baths. The stir speed was 50 rpm in the large vessel method and 100 rpm in the small vessel method and temperature was 37° C. The media was PBS with 0.1% SDS. The commercial ropivacaine was dissolved rapidly with greater than 60% of the material dissolved within 30 minutes. A 17 mg sample dissolving in the large vessel reached a plateau within 4 hours, although only approximately 80% of the ropivacaine added to the experiment was accounted for.
Approximately 100-120% of the compound was accounted for in this assay. […] The Y-intercept values of the regression is representative of the magnitude of the “burst”, which was 25× higher for the commercial sample compared to the recrystallized sample. See also FIG. 1A.

postsurgical pain = details: in vivo; cited from earlier work
[2] = Intrinsic dissolution of ropivacaine, uncoated vs coated with PVA membrane (FIG. 2); type: physicochemical; details: PVA membrane Mn=20-200 kDa, 87% hydrolyzed, 12% citric acid, cured at 125° C. for 6 hours
[3] = Franz cell diffusion of ropivacaine through PVA membranes; type: physicochemical; details: for Fold Decrease in D: relative to buffer with no membrane
Experimental: The diffusion behavior of the encapsulated drug in vivo can be predicted based on diffusion coefficient measured in a Franz cell diffusion system. In particular, diffusion coefficient (D) can be quantified according to Equation 1: [formula] where: • D: Diffusion coefficient (cm^2/s) • L: membrane thickness (cm) • J: flux: (μg×cm^−2×s^−1)=slope (μg/mL/h)×volume (9.8 mL)[…](3600 s/h×A cm^2) • A: surface area of the Franz cell (0.650 cm^2) • ΔC: concentration gradient of ropivacaine (μg/mL or μg/cm^3)=339.98 μg/mL (measured […] fluid concentration)−0 μg/mL (assumed […] concentration) The diffusion of ropivacaine through PVA membranes was measured using a Franz diffusion cell system. The system includes a top donor chamber containing a donor fluid, which is sealed with parafilm during the experiment; and a bottom receptor chamber containing a receptor fluid (9.8 mL of PBS pH 7.3). The donor fluid was prepared in a single batch for use in all diffusion experiments, and consisted of PBS pH 7.3. It was prepared by stirring excess solid ropivacaine in the media for 3 days, and filtering to remove the solids with a 0.22 μm filter. The assayed content was 339.98 μg/m L. The rate of appearance of ropivacaine in the Franz cell receptor fluid (the slope of the concentration versus time plot of the data multiplied by the receptor cell volume, 9.8 mL), and the measured membrane thickness (after hydration), were used to calculate the ropivacaine diffusion coefficient through the membrane, using the formula for Fick's law (Equation 1). The concentration of ropivacaine in the receptor (bottom) chamber was measured at different time points, and the diffusion coefficient was determined from Fick's first law of diffusion. Measured concentrations were converted to total drug transport (μg) by multiplying by the receptor fluid volume (9.8 mL for all experiments). FIGS. 3-5 show the diffusion rate for the first 5 hours for three PVA membranes at various degrees of crosslinking induced by various amounts of citric acid.

[4] = Solubility of ropivacaine in various aqueous media; type: physicochemical
Experimental: As used herein, the aminoamide local anesthetic agents are typically in the free base form, which have lower solubility in an aqueous medium than their salt form (e.g., HCl salt). The low solubility (e.g., less than 1 mg/ml) enables a rapid formation of a saturated solution within the PVA coating or shell.

[5] = USP I, PBS with 0.1% SDS, 37° C.
[6] = PVA membrane 87% hydrolysis, Mn 20-220 kDa, 4% citric acid, 125 °C 6 h
[7] = PVA membrane 87% hydrolysis, Mn 20-220 kDa, 8% citric acid, 125 °C 6 h
[8] = PVA membrane 87% hydrolysis, Mn 20-220 kDa, 12% citric acid, 125 °C 6 h
[9] = PVA membrane 87% hydrolysis, Mn 20-220 kDa, 20% citric acid, 125 °C 6 h
[10] = PVA membrane 87% hydrolysis, Mn 20-220 kDa, 30% citric acid, 125 °C 6 h
[11] = PVA membrane 87% hydrolysis, Mn 146-186 kDa, 4% citric acid, 125 °C 6 h
[12] = PVA membrane 87% hydrolysis, Mn 146-186 kDa, 8% citric acid, 125 °C 6 h
[13] = PVA membrane 87% hydrolysis, Mn 146-186 kDa, 12% citric acid, 125 °C 6 h
[14] = PVA membrane >99% hydrolysis, Mn 90 kDa, 8% citric acid, 125 °C 6 h
[15] = PVA membrane >99% hydrolysis, Mn 90 kDa, 12% citric acid, 125 °C 6 h
[16] = PVA membrane >99% hydrolysis, Mn 90 kDa, 20% citric acid, 125 °C 6 h
[17] = PVA membrane >99% hydrolysis, Mn 146-186 kDa, 0% citric acid, 125 °C 6 h
[18] = PVA membrane >99% hydrolysis, Mn 146-186 kDa, 0% citric acid, 129 °C 3 h
[19] = PVA membrane >99% hydrolysis, Mn 146-186 kDa, 0% citric acid, 140 °C 6 h
[20] = PVA membrane >99% hydrolysis, Mn 146-186 kDa, 4% citric acid, 125 °C 6 h
[21] = PVA membrane >99% hydrolysis, Mn 146-186 kDa, 4% citric acid, 140 °C 6 h
[22] = PVA membrane >99% hydrolysis, Mn 146-186 kDa, 8% citric acid, 125 °C 6 h
[23] = PVA membrane >99% hydrolysis, Mn 146-186 kDa, 12% citric acid, 125 °C 6 h

Time to reach dissolution plateau ([1]; 17 mg sample, large vessel (500 mL, 50 rpm), PBS with 0.1% SDS, 37° C.): ≤ 4 h
Ropivacaine added to the experiment accounted for ([1]; 17 mg sample, large vessel, at plateau): approximately 80%
Material dissolved within 30 minutes [1, 5]: greater than 60%
Magnitude of the burst (Y-intercept of regression), compared to the recrystallized sample ([1]; small vessel apparatus, burst phase within first 30 minutes): 25 ×
Structure (SMILES): CCCN1CCCC[C@H]1C(=O)Nc1c(C)cccc1C [commercial ropivacaine, ropivacaine]

Structure (SMILES): CCCCN1CCCCC1C(=O)Nc1c(C)cccc1C (centres unmarked) [conventional bupivacaine, bupivacaine]
Duration of action (postsurgical pain): ≤ 7 h

Rate of dissolution slowed as compared to commercial ropivacaine ([1]; FIG. 1A): about 10 times
Compound accounted for in this assay [1, 5]: 100-120%
Material dissolved over the first 6 hours (gradual dissolution) [1, 5]: 60%
Structure (SMILES): CCCN1CCCC[C@H]1C(=O)Nc1c(C)cccc1C [recrystallized ropivacaine, ropivacaine]

Intrinsic dissolution compared with ropivacaine coated with PVA membrane [2]: much more rapid
Assayed content of saturated ropivacaine donor fluid ([3]; PBS pH 7.3, excess solid stirred 3 days, filtered 0.22 μm): 339.98 μg/m L
Diffusion of ropivacaine in PBS (diffusion coefficient) ([3]; PBS, no membrane, D defined in cm^2/s): 4.97×10^−6
D, ropivacaine diffusion coefficient [3, 6]: 1.94E−07 cm^2/s and 2.23E−07 cm^2/s
D, ropivacaine diffusion coefficient [3, 7]: 2.20E−07 cm^2/s and 3.01E−07 cm^2/s
D, ropivacaine diffusion coefficient [3, 8]: 4.30E−07 cm^2/s and 5.43E−07 cm^2/s
D, ropivacaine diffusion coefficient [3, 9]: 6.26E−07 cm^2/s and 3.64E−07 cm^2/s
D, ropivacaine diffusion coefficient [3, 10]: 4.88E−07 cm^2/s and 2.82E−07 cm^2/s
D, ropivacaine diffusion coefficient [3, 11]: 2.32E−07 cm^2/s and 2.64E−07 cm^2/s
D, ropivacaine diffusion coefficient [3, 12]: 2.30E−07 cm^2/s and 2.93E−07 cm^2/s
D, ropivacaine diffusion coefficient [3, 13]: 3.85E−07 cm^2/s and 2.90E−07 cm^2/s
D, ropivacaine diffusion coefficient [3, 14]: 1.68E−07 cm^2/s and 1.99E−07 cm^2/s
D, ropivacaine diffusion coefficient [3, 15]: 3.59E−07 cm^2/s and 3.41E−07 cm^2/s
D, ropivacaine diffusion coefficient [3, 16]: 2.38E−07 cm^2/s and 2.01E−07 cm^2/s
D, ropivacaine diffusion coefficient [3, 17]: 9.09E−08 cm^2/s and 9.21E−08 cm^2/s
D, ropivacaine diffusion coefficient [3, 18]: 1.47E−07 cm^2/s
D, ropivacaine diffusion coefficient [3, 19]: 1.33E−07 cm^2/s and 1.19E−07 cm^2/s
D, ropivacaine diffusion coefficient [3, 20]: 2.40E−07 cm^2/s and 2.15E−07 cm^2/s
D, ropivacaine diffusion coefficient [3, 21]: 1.97E−07 cm^2/s and 1.44E−07 cm^2/s
D, ropivacaine diffusion coefficient [3, 22]: 2.02E−07 cm^2/s and 1.91E−07 cm^2/s
D, ropivacaine diffusion coefficient [3, 23]: 2.41E−07 cm^2/s and 2.18E−07 cm^2/s
Decrease in diffusion coefficient compared to diffusion of ropivacaine in PBS ([3]; PVA membranes 146-186 kDa, >99% hydrolysis, after thermal curing and physical crosslinking): 50 times
Fold Decrease in D [3, 6]: 26 and 22
Fold Decrease in D [3, 7]: 23 and 17
Fold Decrease in D [3, 8]: 12 and 9
Fold Decrease in D [3, 9]: 8 and 14
Fold Decrease in D [3, 10]: 10 and 18
Fold Decrease in D [3, 11]: 21 and 19
Fold Decrease in D [3, 12]: 22 and 17
Fold Decrease in D [3, 13]: 13 and 17
Fold Decrease in D [3, 14]: 30 and 25
Fold Decrease in D [3, 15]: 14 and 15
Fold Decrease in D [3, 16]: 21 and 25
Fold Decrease in D [3, 17]: 55 and 54
Fold Decrease in D [3, 18]: 34
Fold Decrease in D [3, 19]: 37 and 42
Fold Decrease in D [3, 20]: 21 and 23
Fold Decrease in D [3, 21]: 25 and 34
Fold Decrease in D [3, 22]: 25 and 26
Fold Decrease in D [3, 23]: 21 and 23
solubility ([4]; PBS + 0.05% SDS, pH 7.4, aqueous with cosolvent or surfactant or cyclodextrin): 254 ± 14 µg/mL
solubility ([4]; PBS + 68 mg/mL BSA, pH 7.4, plasma or biological fluid): 792 ± 111 µg/mL
solubility ([4]; PBS + 0.1% SDS, pH 7.4, aqueous with cosolvent or surfactant or cyclodextrin): 306 ± 18 µg/mL
solubility ([4]; PBS + 0.2% SDS, pH 7.4, aqueous with cosolvent or surfactant or cyclodextrin): 350 ± 12 µg/mL
solubility ([4]; aqueous buffer, PBS (pH 7.4)): 254 ± 13 µg/mL (≈ 926 µM)
Structure (SMILES): CCCN1CCCC[C@H]1C(=O)Nc1c(C)cccc1C [ropivacaine]
